For orientation: Emax means the greatest response seen or fitted, relative to the assay's reference.

The text below walks through data of patent US20260297060A1, “COMPOUNDS FOR THE DEGRADATION OF MUTANT BRAF” (C4 THERAPEUTICS, INC., priority 2023, published 2026).

Read-outs that look alike come from different tables or passages of the source.

In this test the target is T1, BRAF V600E (Homo sapiens, UniProt P15056+Q96SW2, V600E).
T1 construct: knock-in of the HiBiT tag to the endogenous BRAF V600E locus; host or cells: A375.10 (A375 clonal line, CRISPR HiBiT knock-in at the endogenous BRAF V600E locus)
The test can be described thus: BRAF V600E HiBiT Degradation Assay. The test is classed as cell-based. The method in brief:
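Endogenous HiBiT knock-in on BRAF V600E in A375 cells (clone A375.10); 11-point half-log series, top 10 μM, 2, 6 or 24 h at 37° C. Lytic HiBiT luminescence, background-subtracted, normalized to DMSO; 4-parameter fit gives DC50, Emax (residual protein) and IP (inflection point).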

Setting [1] is: A375.10 cells, BRAF V600E, 2 hours, inflection point, read-out: HiBiT-Degradation A375.10 BRAF 2 hours IP.
[2] abbreviates: A375.10 cells, BRAF V600E, 2 hours, read-out: HiBiT-Degradation A375.10 BRAF 2 hours DC50.
Where [3] appears, read: A375.10 cells, BRAF V600E, 6 hours, inflection point, read-out: HiBiT-Degradation A375.10 BRAF 6 hours IP.
Setting [4] is: A375.10 cells, BRAF V600E, 6 hours, read-out: HiBiT-Degradation A375.10 BRAF 6 hours DC50.
Where [5] appears, read: A375.10 cells, BRAF V600E, 6 hours, residual protein remaining, read-out: HiBiT-Degradation A375.10 BRAF 6 hours Emax.
Setting [6] is: A375.10 cells, HiBiT, BRAF V600E, 24 hours, read-out: HiBiT-Degradation A375.10 BRAF 24 hours DC50.
[7] abbreviates: A375.10 cells, HiBiT, BRAF V600E, 24 hours, read-out: HiBiT-Degradation A375.10 BRAF 24 hours Emax.
[8] abbreviates: A375.10 cells, HiBiT, BRAF V600E, 24 hours, read-out: HiBiT-Degradation A375.10 BRAF 24 hours IP.
Where [9] appears, read: read-out: HiBiT-Degradation A375.10 BRAF 2 hours Emax, A375.10 cells, BRAF V600E, 2 hours, residual protein remaining.
The mark [10] stands for this setting: A375.10 cells, BRAF V600E, 2 hours, residual protein remaining, read-out: HiBiT-Degradation A375.10 BRAF 2 hours Emax.

T1 sequence (P15056 whole entry V600E): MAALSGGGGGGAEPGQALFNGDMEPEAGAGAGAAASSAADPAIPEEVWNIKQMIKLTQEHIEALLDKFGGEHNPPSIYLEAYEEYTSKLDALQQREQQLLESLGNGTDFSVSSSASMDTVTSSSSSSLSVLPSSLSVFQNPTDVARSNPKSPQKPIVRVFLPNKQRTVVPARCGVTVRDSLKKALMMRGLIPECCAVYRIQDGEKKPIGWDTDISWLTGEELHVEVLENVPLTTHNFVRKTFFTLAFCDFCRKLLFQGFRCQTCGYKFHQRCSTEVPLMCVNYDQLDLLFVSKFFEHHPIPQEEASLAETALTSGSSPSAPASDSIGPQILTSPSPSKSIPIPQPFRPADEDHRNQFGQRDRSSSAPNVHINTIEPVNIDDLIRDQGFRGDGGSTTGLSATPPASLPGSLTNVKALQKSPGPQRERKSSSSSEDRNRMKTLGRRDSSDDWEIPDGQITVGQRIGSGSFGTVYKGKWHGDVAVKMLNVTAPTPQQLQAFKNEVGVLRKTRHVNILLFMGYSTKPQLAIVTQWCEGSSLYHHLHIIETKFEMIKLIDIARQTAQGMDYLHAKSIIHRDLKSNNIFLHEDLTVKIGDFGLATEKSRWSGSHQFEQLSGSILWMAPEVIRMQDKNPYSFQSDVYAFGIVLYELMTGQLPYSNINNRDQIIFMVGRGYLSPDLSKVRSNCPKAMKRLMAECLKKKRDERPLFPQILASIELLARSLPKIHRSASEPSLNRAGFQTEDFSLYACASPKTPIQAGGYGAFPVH
T1 sequence (Q96SW2 whole entry): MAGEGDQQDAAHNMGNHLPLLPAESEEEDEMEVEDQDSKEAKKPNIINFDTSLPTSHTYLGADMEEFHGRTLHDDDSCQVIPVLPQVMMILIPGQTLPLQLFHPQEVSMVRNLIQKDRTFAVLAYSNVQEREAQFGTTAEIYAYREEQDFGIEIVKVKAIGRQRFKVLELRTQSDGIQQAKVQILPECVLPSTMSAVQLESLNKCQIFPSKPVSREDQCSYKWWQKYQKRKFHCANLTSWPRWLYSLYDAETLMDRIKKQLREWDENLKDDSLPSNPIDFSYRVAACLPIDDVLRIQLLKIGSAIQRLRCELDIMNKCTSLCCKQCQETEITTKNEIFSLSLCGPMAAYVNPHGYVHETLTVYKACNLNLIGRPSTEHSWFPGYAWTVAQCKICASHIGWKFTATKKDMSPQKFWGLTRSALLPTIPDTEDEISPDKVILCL
T1 sequence (Q16531 whole entry partner): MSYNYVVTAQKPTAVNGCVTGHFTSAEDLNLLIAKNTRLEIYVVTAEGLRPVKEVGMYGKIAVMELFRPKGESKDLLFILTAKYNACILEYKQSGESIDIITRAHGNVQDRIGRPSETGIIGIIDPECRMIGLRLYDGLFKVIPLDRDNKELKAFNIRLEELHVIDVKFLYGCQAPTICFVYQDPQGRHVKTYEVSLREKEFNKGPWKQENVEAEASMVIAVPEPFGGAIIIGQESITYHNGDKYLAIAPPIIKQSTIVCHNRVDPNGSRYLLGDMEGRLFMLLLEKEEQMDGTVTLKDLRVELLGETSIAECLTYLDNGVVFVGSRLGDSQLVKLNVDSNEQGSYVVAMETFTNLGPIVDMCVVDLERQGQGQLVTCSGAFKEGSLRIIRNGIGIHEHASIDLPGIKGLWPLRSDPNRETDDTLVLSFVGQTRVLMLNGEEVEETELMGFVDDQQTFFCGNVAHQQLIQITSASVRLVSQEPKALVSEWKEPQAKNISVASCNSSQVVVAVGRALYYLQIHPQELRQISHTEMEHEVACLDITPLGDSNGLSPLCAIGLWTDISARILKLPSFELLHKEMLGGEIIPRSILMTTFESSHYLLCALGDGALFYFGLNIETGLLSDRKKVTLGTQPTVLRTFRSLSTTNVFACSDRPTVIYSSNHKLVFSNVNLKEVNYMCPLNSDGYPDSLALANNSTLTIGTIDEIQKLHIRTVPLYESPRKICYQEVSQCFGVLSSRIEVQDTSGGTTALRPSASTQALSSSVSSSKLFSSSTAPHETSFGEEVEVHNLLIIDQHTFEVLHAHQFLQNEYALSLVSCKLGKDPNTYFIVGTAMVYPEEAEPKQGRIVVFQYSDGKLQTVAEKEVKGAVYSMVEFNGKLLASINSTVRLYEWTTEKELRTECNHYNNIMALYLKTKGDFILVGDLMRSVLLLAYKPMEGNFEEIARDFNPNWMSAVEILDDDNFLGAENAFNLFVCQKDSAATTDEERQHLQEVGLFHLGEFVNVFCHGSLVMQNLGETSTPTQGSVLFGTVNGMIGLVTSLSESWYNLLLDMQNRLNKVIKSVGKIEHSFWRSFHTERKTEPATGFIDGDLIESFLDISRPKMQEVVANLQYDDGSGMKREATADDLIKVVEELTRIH

Take `CCN(C)S(=O)(=O)Nc1ccc(F)c(Oc2ccc3ncc([C@H]4COC5(CCN(C6CCC(c7ccc(NC8CCC(=O)NC8=O)cc7F)CC6)CC5)C4)nc3c2)c1C#N` (single isomer, unassigned) [Compound 58]: the DC50 is, setting by setting: under setting [1], < 1000 nM; under setting [2], < 1000 nM; under setting [3], < 1000 nM; under setting [4], < 1000 nM; under setting [6], < 1000 nM; under setting [8], < 1000 nM. Also, the Emax by setting is: under setting [5], < 50%; under setting [7], < 50%; under setting [9], < 50%.

For the compound `CCN(C)S(=O)(=O)Nc1ccc(F)c(Oc2ccc3ncn(C4CC5(CCN(C6CCC(c7cc8c(cc7F)c(N7CCC(=O)NC7=O)nn8C)CC6F)CC5)C4)c(=O)c3c2)c1C#N` (single isomer, unassigned) [Compound 86], the “HiBiT-Degradation A375.10 BRAF 2 hours Emax” value was “*** (<=50%)”. For the same compound, the DC50 under setting [1] was < 1000 nM. Besides, the DC50 under setting [2] is < 1000 nM.

For the compound `Cn1nc(N2CCC(=O)NC2=O)c2cc(F)c(N3CC4(CC(N5CCC6(CC5)CC(n5cnc7ccc(Oc8c(F)ccc(NS(=O)(=O)N9C[C@H]%10C[C@H]%10C9)c8C#N)cc7c5=O)C6)C4)C3)cc21` (stereo partly drawn) [Compound 277, (1R,5S)-N-[2-cyano-3-[3-[7-[2-[3-(2,4-dioxohexahydropyrimidin-1-yl)-5-fluoro-1-methyl-indazol-6-yl]-2-azaspiro[3.3]heptan-6-yl]-7-azaspiro[3.5]nonan-2-yl]-4-oxo-quinazolin-6-yl]oxy-4-fluoro-phenyl]-3-azabicyclo[3.1.0]hexane-3-sulfonamide], the DC50 runs as follows: under setting [1], < 1000 nM; under setting [2], < 1000 nM. Moreover, under setting [9], the Emax was < 50%.

For `CCN(C)S(=O)(=O)Nc1ccc(F)c(Oc2ccc3ncn([C@H]4COC5(CCN(C6CC(c7ccc(NC8CCC(=O)NC8=O)cc7F)C6)CC5)C4)c(=O)c3c2)c1C#N` (single isomer, unassigned) [Compound 62], the DC50 is < 1000 nM under setting [1]; < 1000 nM under setting [2]; < 1000 nM under setting [3]; < 1000 nM under setting [4]; < 1000 nM under setting [6]; < 1000 nM under setting [8]. Also, the Emax under setting [10] is < 50%, the Emax under setting [5] is < 50% and the Emax under setting [7] was < 50%.

`Cn1nc(N2CCC(=O)NC2=O)c2cc(F)c(C3CCC(N4CCC5(CC4)CC(n4cnc6ccc(Oc7c(F)ccc(NS(=O)(=O)N8CC[C@@H](F)C8)c7C#N)cc6c4=O)C5)CC3)cc21` (single isomer, unassigned) [Compound 122]: the DC50 was < 1000 nM under setting [1]; < 1000 nM under setting [2]; < 1000 nM under setting [3]; < 1000 nM under setting [4]; < 1000 nM under setting [6]; < 1000 nM under setting [8]. Also, the Emax under setting [10] was < 50%, the Emax under setting [5] was < 50% and the Emax under setting [7] was < 50%.

Consider `CO[C@@H]1CCN(S(=O)(=O)Nc2ccc(F)c(Oc3ccc4ncn([C@H]5COC6(CCN(C7CCC(c8ccc(NC9CCC(=O)NC9=O)cc8F)CC7)CC6)C5)c(=O)c4c3)c2C#N)C1` (single isomer, unassigned) [Compound 109], for which the DC50 is, setting by setting: under setting [1], < 1000 nM; under setting [2], < 1000 nM; under setting [3], < 1000 nM; under setting [4], < 1000 nM; under setting [6], < 1000 nM; under setting [8], < 1000 nM. Also, the Emax under setting [10] was < 50%, the Emax under setting [5] was < 50% and the Emax under setting [7] is < 50%.

As for `CCN(C)S(=O)(=O)Nc1ccc(F)c(Oc2ccc3ncn([C@H]4COC5(CCC(N6CCC(c7cc8c(cc7F)c(N7CCC(=O)NC7=O)nn8C)C(F)(F)C6)CC5)C4)c(=O)c3c2)c1C#N` (single isomer, unassigned) [Compound 39], the “HiBiT-Degradation A375.10 BRAF 2 hours Emax” value is “*** (<=50%)”. Besides, under setting [1], the DC50 is < 1000 nM. In addition, under setting [2], the DC50 is < 1000 nM. Also, under setting [3], the DC50 is < 1000 nM. Moreover, under setting [4], the DC50 was < 1000 nM. In addition, the “HiBiT-Degradation A375.10 BRAF 6 hours Emax” value (A375.10 cells, BRAF V600E, 6 hours, residual protein remaining) is reported as “*** (<=50%)”. The “HiBiT-Degradation A375.10 BRAF 24 hours Emax” value (A375.10 cells, HiBiT, BRAF V600E, 24 hours) is given as “*** (<=50%)”. Also, the DC50 under setting [6] is < 1000 nM. Besides, the DC50 under setting [8] was < 1000 nM.

In the case of `CC(C)S(=O)(=O)Nc1ccc(F)c(Oc2ccc3ncn([C@H]4COC5(CCN(C6CC7(C6)CN(c6cc8c(cc6F)c(N6CCC(=O)NC6=O)nn8C)C7)CC5)C4)c(=O)c3c2)c1C#N` [Compound 134, N-[2-cyano-3-[3-[(3R)-8-[2-[3-(2,4-dioxohexahydropyrimidin-1-yl)-5-fluoro-1-methyl-indazol-6-yl]-2-azaspiro[3.3]heptan-6-yl]-1-oxa-8-azaspiro[4.5]decan-3-yl]-4-oxo-quinazolin-6-yl]oxy-4-fluoro-phenyl]propane-2-sulfonamide], the DC50 by setting is: under setting [1], < 1000 nM; under setting [2], < 1000 nM; under setting [3], < 1000 nM; under setting [4], < 1000 nM; under setting [6], < 1000 nM; under setting [8], < 1000 nM. The Emax is, setting by setting: under setting [10], 50 to 90%; under setting [5], < 50%; under setting [7], < 50%.

As for `CCN(C)S(=O)(=O)Nc1ccc(F)c(Oc2ccc3ncc([C@H]4COC5(CCN(C6CC7(C6)CN(c6cc8c(cc6F)c(N6CCC(=O)NC6=O)nn8C)C7)CC5)C4)nc3c2)c1C#N` [Compound 158, (3S)-3-[7-[2-cyano-3-[[ethyl(methyl)sulfamoyl]amino]-6-fluoro-phenoxy]quinoxalin-2-yl]-8-[2-[3-(2,4-dioxohexahydropyrimidin-1-yl)-5-fluoro-1-methyl-indazol-6-yl]-2-azaspiro[3.3]heptan-6-yl]-1-oxa-8-azaspiro[4.5]decane], the DC50 runs as follows: under setting [1], < 1000 nM; under setting [2], 1000 to 10000 nM. Moreover, the Emax under setting [9] fell in the range of 50 to 90%.

For `CC(C)S(=O)(=O)Nc1ccc(F)c(Oc2ccc3ncn([C@H]4COC5(CCN(C6CCC(c7cc8c(cc7F)c(N7CCC(=O)NC7=O)nn8C)CC6)CC5)C4)c(=O)c3c2)c1C#N` (single isomer, unassigned) [Compound 87], the DC50 runs as follows: under setting [1], < 1000 nM; under setting [2], < 1000 nM; under setting [3], < 1000 nM; under setting [4], < 1000 nM; under setting [6], < 1000 nM; under setting [8], < 1000 nM. Further, the Emax was < 50% under setting [10], < 50% under setting [5] and < 50% under setting [7].

As for `CO[C@H]1CCN(S(=O)(=O)Nc2ccc(F)c(Oc3ccc4ncn([C@H]5COC6(CCN(C7CCC(c8cc9c(cc8F)c(N8CCC(=O)NC8=O)nn9C)CC7)CC6)C5)c(=O)c4c3)c2C#N)C1` (single isomer, unassigned) [Compound 115], the DC50 under setting [1] was < 1000 nM; the DC50 under setting [2] was < 1000 nM; the DC50 under setting [3] was < 1000 nM; the DC50 under setting [4] is < 1000 nM; the DC50 under setting [6] is < 1000 nM; the DC50 under setting [8] is < 1000 nM. Also, the Emax by setting is: under setting [10], < 50%; under setting [5], < 50%; under setting [7], < 50%.

With `CN(CCO)S(=O)(=O)Nc1ccc(F)c(Oc2ccc3ncn([C@H]4COC5(CCN(C6CCC(c7cc8c(cc7F)c(N7CCC(=O)NC7=O)nn8C)CC6)CC5)C4)c(=O)c3c2)c1C#N` (single isomer, unassigned) [Compound 73], the DC50 is, setting by setting: under setting [1], < 1000 nM; under setting [2], < 1000 nM; under setting [3], < 1000 nM; under setting [4], < 1000 nM; under setting [6], < 1000 nM; under setting [8], < 1000 nM. In addition, the maximal response (Emax) reads like this: under setting [10], < 50%; under setting [5], < 50%; under setting [7], < 50%.
